{"source": "patent US20240245806A1", "about": "“TREATMENT OF NEURODEGENERATIVE DISEASE USING CSA- AND INDY-TYPE COMPOUNDS” (BROWN UNIVERSITY, priority 2021, published 2024)", "key": {"zebrafish larvae": {"system": "zebrafish larvae", "experiment": "Acute exposure of 5 dpf zebrafish larvae to modulators of calcineurin signaling, automated analysis of behavior", "assay_type": "in vivo, Danio rerio", "conditions": "vs DMSO", "procedure": "Zebrafish larvae were treated at 5 dpf with various modulators of calcineurin signaling, starting 3 hours before imaging. The larvae were then imaged for a total of 3 hours using a behavioral assay with various visual and acoustic stimuli (FIG. 6). The behavioral assay started with a 1-hour period without stimuli, followed by 80 minutes with visual stimuli, 10 minutes without visual or acoustic stimuli, and 30 minutes with acoustic stimuli. Values of activity (% move) and position (% up) were averaged in individual larvae during 10-minute periods, for a total of 18 periods. These values were subsequently averaged between larvae in the same treatment group. We examined a total of 10 treatment groups. For clarity, only 3 treatment groups were graphed (FIG. 6), but all 10 treatment groups were analyzed in detail as shown in subsequent figures. […] The assay provides quantitative information on activity, visually-guided behaviors and acoustic startle responses.\nTo determine if larval zebrafish behavior is affected by modulation of calcineurin signaling, we imaged 5 day-old larvae in the following 10 treatment groups: 10 μM cyclosporine A (CsA), 1 μM tacrolimus (FK506), 5 or 10 μM proINDY, a combination of CsA+5 or 10 μM proINDY, or a combination of FK506+5 or 10 μM proINDY, DMSO as a vehicle control, and 1 μM rapamycin as a control for target specificity. Rapamycin and FK506 are both macrolide immunosuppressants with similar structures, however, rapamycin affects Target of Rapamycin (TOR) signaling instead of calcineurin signaling. Vellanki et al., Front Mol Biosci 7, 588913 (2020). The concentrations of CsA, FK506 and rapamycin were selected based on prior studies in zebrafish embryos and larvae. Clift et al., Behav Brain Res 282, 117-124 (2015). The two concentrations of proINDY, a membrane-permeable form of INDY (inhibitor of DYRK), were selected based on studies in cell lines and Xenopus embryos. Ogawa et al., Nat Commun 1, 86 (2010).\nThe research project has been conducted in accordance with local and federal guidelines for ethical and humane use of animals and has been reviewed and approved by the Brown University Institutional Animal Care and Use Committee. Zebrafish (Danio rerio) embryos were collected and grown to larval stages as previously described. Thorn et al., Sci Rep 9, 13989 (2019). Adult wild-type zebrafish are maintained at Brown University as a genetically-diverse outbred strain in a mixed male and female population. Zebrafish embryos from 0-3 days post-fertilization (dpf) and zebrafish larvae from 3-5 dpf were maintained at 28.5° C. in 2 L culture trays with egg water, containing 60 mg/L sea salt (Instant Ocean) and 0.25 mg/L methylene blue in deionized water. Embryos and larvae were kept on a 12 hour light/12 hour dark cycle and were randomly assigned to different experimental groups prior to experimental manipulation. The sex of embryos and larvae cannot be determined at such early stages because zebrafish use elusive polygenic factors for sex determination, and both males and females have juvenile ovaries between 2.5 and 4 weeks of development. Zebrafish larvae were imaged at 5 dpf when the larvae display a range of locomotor behaviors and consume nutrients available in the yolk sac. Larvae are approximately 4 mm long at the 5 dpf stage.\nCyclosporine (cyclosporin A, Enzo Life Sciences), FK506 (tacrolimus, Enzo Life Sciences), rapamycin (Santa Cruz Biotechnology) and proINDY (Tocris Bioscience) were diluted in egg water from 1000× stocks dissolved in dimethyl sulfoxide (DMSO). DMSO (1 μl/ml DMSO) was added to the single treatments and the corresponding DMSO concentration was used as a vehicle control for all solutions. Larvae were exposed at 5 dpf to treatment solutions or DMSO for a total of 6 hours. Larvae were first treated in a Petri dish for 2 hours, transferred with the treatment solution to white 96-well ProxiPlates (PerkinElmer, 6006290) for 1 hour, and then imaged in the treatment solution for 3 hours. […]"}, "[1]": {"system": "zebrafish embryos and larvae", "experiment": "Developmental exposure (2-3, 3-4 or 4-5 dpf) of zebrafish to modulators of calcineurin signaling, behavior imaged at 5 dpf", "assay_type": "in vivo", "conditions": "for early activity (first hour): imaged 5 dpf", "procedure": "Zebrafish. Adult wild type zebrafish (Danio rerio) are maintained at Brown University as a genetically-diverse outbred strain in a mixed male and female population. Zebrafish embryos were collected and grown to larval stages as described previously. Thorn et al., Sci Rep 9, 13989 (2019). Embryos from 0-3 days post-fertilization (dpf) and larvae from 3-5 dpf were kept on a 12 hour light/12 hour dark cycle at 28.5° C. in 2 L culture trays with egg water, containing 60 mg/L sea salt (Instant Ocean) and 0.25 mg/L methylene blue in deionized water. Zebrafish embryos and larvae were randomly assigned to different experimental groups prior to experimental manipulation. The sex of embryos and larvae cannot be determined at such early stages because zebrafish use elusive polygenic factors for sex determination, and both males and females have juvenile ovaries between 2.5 and 4 weeks of development. Liew et al., Brief Funct Genomics 13(2), 172-187 (2014). Zebrafish larvae were imaged at 5 dpf when they are approximately 4 mm long, display a range of locomotor behaviors and consume nutrients available in the yolk sac. Clift et al., Zebrafish 11(5), 455-461 (2014).\nPharmacological treatments. Zebrafish embryos and larvae were treated with 10 μM CsA (cyclosporin A, Enzo Life Sciences), 1 μM FK506 (tacrolimus, Enzo Life Sciences), 1 μM rapamycin (Santa Cruz Biotechnology), 5 μM proINDY (Tocris Bioscience) or co-treatments of either 10 μM CsA+5 μM proINDY or 1 μM FK506+5 μM proINDY. […] Clift et al., Behav Brain Res, 282, 117-124 (2015). […] Robinson et al., J Appl Toxicol 37(12), 1438-1447 (2017). […] All administered compounds were diluted in egg water from 1000× stocks dissolved in dimethyl sulfoxide (DMSO). The corresponding DMSO concentration (1 μl DMSO/ml egg water) was used as a vehicle control. Embryos and larvae were treated during one of the following developmental stages: 2-3, 3-4, or 4-5 dpf. The embryos and larvae were treated in 10 cm Petri dishes for 24 hours, rinsed three times with egg water, and then transferred to new Petri dishes with egg water. Larvae that were treated from 4-5 dpf were rinsed and kept in egg water for 3 hours prior to imaging, typically from 10 am to 1 pm. All treatment groups were imaged at 5 dpf in egg water. For imaging, larvae were transferred to white 96-well ProxiPlates (PerkinElmer, 6006290) and were imaged for 3 hours, typically from 1-4 pm (FIG. 12).\nImaging of zebrafish larvae. Zebrafish larvae were imaged in a 384-well imaging system as described previously. Thorn et al., Sci Rep 9, 13989 (2019). Briefly, four 96-well ProxiPlates were placed on a glass stage inside a temperature-controlled cabinet, set at 28.5° C. The upper shelf of the cabinet holds a high-resolution camera (18-megapixel Canon EOS Rebel T6 with an EF-S 55-250 mm f/4.0-5.6 IS zoom lens), connected to a continuous power supply (Canon ACK-E10 AC Adapter) and controlled by a laptop computer. Images are acquired using Canon's Remote Capture software (EOS Utility, version 3), which is included with the camera. Every 6 seconds, the camera acquires a high-resolution image of larvae in the microplates (FIG. 12). Two small speakers (OfficeTec USB Computer Speakers Compact 2.0 System) are located speaker-side down on the glass stage. Speakers were connected by USB to the laptop computer and set to maximum volume (85 dBA).\nBehavioral assay. Larval behaviors were imaged for 3 hours, as described previously. Thorn et al., Sci Rep 9, 13989 (2019). […] The PowerPoint started with a light background for 60 minutes without visual or acoustic stimuli, followed by 80 minutes with visual stimuli, 10 minutes without stimuli, and 30 minutes with acoustic stimuli (FIG. 12). Larvae were not exposed to visual stimuli and acoustic stimuli at the same time. The visual stimuli consisted of a series of lines that moved upwards or downwards in the microplates, in a horizontal plane. […]"}, "transplant patients": {"system": "transplant patients", "conditions": "all age groups above 65; cited from earlier work"}, "[2]": {"conditions": "5 dpf acute exposure, 10 μM CsA, 1 μM FK506, 1 μM rapamycin, proINDY"}}, "note": "Entries after “also recorded” stand apart in the source; their conditions may differ.", "data": [{"smiles": "C=CC[C@@H]1/C=C(\\C)C[C@H](C)C[C@H](OC)[C@H]2O[C@@](O)(C(=O)C(=O)N3CCCC[C@H]3C(=O)O[C@H](/C(C)=C/[C@@H]3CC[C@@H](O)[C@H](OC)C3)[C@H](C)[C@@H](O)CC1=O)[C@H](C)C[C@@H]2OC", "note": "[FK506, tacrolimus]", "values": [{"measurement": "optomotor response (OMR)", "setting": "zebrafish larvae; 5 dpf acute exposure", "value": "decreased optomotor responses"}, {"measurement": "early activity (first hour of imaging)", "setting": "zebrafish larvae; [2]", "value": "increased early larval activity; also recorded: significant increase in both early and late activity"}, {"measurement": "late activity (period 15)", "setting": "zebrafish larvae; [2]", "value": "increased activity; also recorded: significant increase in both early and late activity"}, {"measurement": "activity", "setting": "zebrafish larvae; 5 dpf acute exposure, 10 μM CsA, 1 μM FK506, proINDY 5 or 10 μM", "value": "increased activity"}, {"measurement": "excitability (acoustic stimuli at 1-second intervals)", "setting": "zebrafish larvae; 5 dpf acute", "value": "increase in excitability; also recorded: increased excitability"}, {"measurement": "habituation to acoustic stimuli at 1-second intervals", "setting": "zebrafish larvae; 5 dpf acute", "value": "decreased habituation"}, {"measurement": "optomotor response to red lines", "setting": "zebrafish larvae; 5 dpf acute, proINDY 5 μM", "value": "decreased optomotor responses"}, {"measurement": "startle responses (20-second interval)", "setting": "[1]; all exposure groups, vs DMSO", "value": "decrease startle responses"}, {"measurement": "OMR Blue", "setting": "[1]; exposure 2-3 dpf", "value": "decrease in OMR Blue"}, {"measurement": "OMR Green", "setting": "[1]; exposure 2-3 dpf", "value": "decrease in OMR Green"}, {"measurement": "OMR RGB", "setting": "[1]; exposure 2-3 dpf", "value": "decrease in OMR RGB"}, {"measurement": "behavioral profile", "setting": "[1]; exposure 2-3 dpf", "value": "hyperactivity, low habituation, and low optomotor responses"}, {"measurement": "habituation to acoustic stimuli (1 second interval)", "setting": "[1]; exposure 2-3 dpf", "value": "reduced larval habituation"}, {"measurement": "startle responses (20-second interval)", "setting": "[1]; exposure 2-3 dpf", "value": "strongly reduced"}, {"measurement": "early activity (first hour)", "setting": "[1]; exposure 2-3 dpf", "value": "hyperactivity"}, {"measurement": "habituation to acoustic stimuli (1 second interval)", "setting": "[1]; exposure 3-4 dpf", "value": "reduced larval habituation"}, {"measurement": "late activity (period 15)", "setting": "[1]; exposure 3-4 dpf", "value": "substantial increases in activity"}, {"measurement": "startle responses (20-second interval)", "setting": "[1]; exposure 3-4 dpf", "value": "reduced"}, {"measurement": "early activity (first hour)", "setting": "[1]; exposure 3-4 dpf", "value": "hyperactivity"}, {"measurement": "OMR Fast Red", "setting": "[1]; exposure 4-5 dpf", "value": "decrease in OMR Fast Red"}, {"measurement": "OMR Green", "setting": "[1]; exposure 4-5 dpf", "value": "decrease in OMR Green"}, {"measurement": "excitability", "setting": "[1]; exposure 4-5 dpf", "value": "increases in excitability"}, {"measurement": "habituation to acoustic stimuli (1 second interval)", "setting": "[1]; exposure 4-5 dpf", "value": "increased larval habituation"}, {"measurement": "late activity (period 15)", "setting": "[1]; exposure 4-5 dpf", "value": "substantial increases in activity"}, {"measurement": "development of Alzheimer's disease in treated transplant patients", "setting": "transplant patients", "value": "rarely develops"}]}]}
